Reference: article PMC9133069, “In vitro proliferation and long-term preservation of functional primary rat hepatocytes in cell fibers” (Scientific Reports, 2022)

What was measured:
Type in all cases: cell-based
primary rat hepatocytes [1] = assay: Hepatotoxicity assessment, cell viability (trypan blue exclusion) after 24 h compound treatment; conditions: Hepatocyte, 24 h treatment
Experimental: (§1) To explore the possible application of cell fibers encapsulating primary hepatocytes in the field of drug screening, we evaluated the potential of cell fibers for in vitro detection of hepatotoxicity of drugs. […] First, primary rat hepatocytes were encapsulated into core–shell hydrogel microfibers at the initial cell seeding density of 2.5 × 10^7 cells mL^−1 and were cultured in the media supplemented with 3T3CM. Secondly, the concentration-reaction curves for these compounds were obtained through the assays of cellular viability, albumin secretion, and urea synthesis performed at different time points: 4 days, 7 days, 14 days, and 30 days after the start of culture. Thirdly, based upon these concentration-reaction curves (Figs. S4–S7), the corresponding IC50 values were estimated. Moreover, we attempted to compare these IC50 values with those obtained using another culture system where primary rat hepatocytes were cultured on collagen-coated 24-well plates.
(§2) Primary rat hepatocytes cultured either in cell fibers or in collagen-coated 24-well plates were treated for 24 h with either of these compounds diluted in media at intended concentrations, and then the respective compound-treated hepatocytes underwent assays of their different specific characteristics: cell viability, albumin secretion, or urea synthesis. Data from drug-treated hepatocytes were normalized to the respective untreated controls in the same culture system. By plotting these normalized data on y-axis and the concentrations of compounds on x-axis, the concentration-reaction curves were generated.
(§3) Culture of primary rat hepatocytes in cell fibers
(§4) After formation of core-shell hydrogel microfibers encapsulating primary rat hepatocytes, they were incubated at 37 °C for more than 15 minutes to set the ECM proteins at the core region into gels. Subsequently, primary rat hepatocytes in cell fibers were cultured in DMEM supplemented with 1% Glutamax, 10% heat-inactivated FBS, 100 IU mL-1 penicillin, 100 mg mL-1 streptomycin, insulin, 6.25 mg mL-1 transferrin, 6.25 ng mL-1 selenous acid (Lonza, Tokyo, Japan), and 1mM HEPES at 37 °C under a water saturated 5% CO2 environment; this medium is the one that have been optimized to […]
(§5) were performed every 48 hours. […]
(§6) Culture of primary rat hepatocytes using collagen-coated 24-well plates 5x10^5 primary rat hepatocytes freshly isolated were seeded on collagen-coated 24-well plates (Corning Japan K.K, Tokyo, Japan). The primary rat hepatocytes were first cultured in Dulbecco’s Modified Eagle’s Medium (DMEM; Gibco, Tokyo, Japan) supplemented with 1% Glutamax (Life Technologies, Tokyo, Japan), 10% heat-inactivated foetal bovine serum (Equitech-Bio, Kerrville, TX), 100 IU mL-1 penicillin (Gibco), 100 mg mL-1 streptomycin (Gibco), and 1mM HEPES (Sigma Aldrich, Japan)

primary rat hepatocytes [2] = assay: Hepatotoxicity assessment, urea synthesis after 24 h compound treatment; conditions: Hepatocyte, 24 h treatment
Experimental: as §1
(§7) The amount of albumin in culture medium was measured using an enzyme-linked immunosorbent assay kit (rat albumin ELISA kit, Bethyl Laboratories, Montgomery, TX). The amount of urea in culture medium was measured using an assay kit (QuantiChrom urea assay kit, BioAssay Systems, Hayward, CA). For both assays, respective absorbency at 450 nm or at 430 nm was measured using a microplate reader (MTP-810, Corona Electric, and Hitachi, Japan). All the values were normalized by the number of hepatocytes and the data were expressed as protein amount 10^–6 cells time^−1.
as §2, §3, §4, §5
as §6, with “Aldrich, Japan) at 37 °C under a water saturated 5% CO2 environment. Three hours after the beginning of culture, media were changed and the primary rat hepatocytes started to be cultured in William’s medium E (Life Technologies) supplemented with 1% Glutamax, 100 IU mL-” for “Aldrich, Japan)”

primary rat hepatocytes [3] = assay: Assessment of hepatocyte proliferation inhibition in cell fibers
Description: Practically, core–shell hydrogel microfibers were fabricated to encapsulate primary rat hepatocytes at the initial cell seeding density of 2.5 × 10^7 cells mL^−1.
For that, we first fabricated cell fibers encapsulating primary rat hepatocytes at the initial cell seeding density of 2.5 × 10^7 cells mL^−1. […] Subsequently, we compared these two groups over time by analyzing their morphology and cell number.
Counting primary rat hepatocytes and evaluating their viability per cell fiber were performed three times and averaged. Prior to those procedures, the alginate shells were removed, and the primary rat hepatocytes were retrieved. To remove the shells of the cell fibers, 4 mg mL^−1 of alginate lyase (Sigma Aldrich) in Dulbecco's Phosphate-Buffered Saline (DPBS) (+) was added at a 1:100 ratio to the culture media, and the media were incubated for 15 min. To retrieve primary rat hepatocytes from ECM, 4 mg mL^−1 of collagenase (Sigma-Aldrich) in DPBS (+) was added at a 1:50 ratio to the culture media and the media were incubated for 5 min. The cell number of primary rat hepatocytes per cell fiber was counted by using cell-counting plate (WakenBtech, Japan). The cellular viabilities were examined by the trypan blue dye-exclusion test.
Then immediately, this working solution was diluted in media at intended concentrations. The changeover between starting and stopping exposure to retrorsine was done by medium replacement; the culture media surrounding the cell fibers can be completely removed from petri dishes to be replaced with new ones while keeping the cell fibers intact. The proliferation rate of the hepatocytes in the experimental groups was calculated by dividing the numbers of the hepatocytes that proliferated from 2 days of culture to 3 days of culture in the experimental groups with the ones in the control group.

primary rat hepatocytes [4] = assay: Hepatotoxicity assessment, albumin secretion (ELISA) after 24 h compound treatment; conditions: Hepatocyte, 24 h treatment
Experimental: as §1, §7, §2, §3, §4, §5
as §6, with “Aldrich, Japan) at 37 °C under a water saturated 5% CO2 environment. […]” for “Aldrich, Japan)”

[5] = collagen-coated 24-well plates, culture duration 4 days
[6] = cell fibers (core–shell hydrogel microfibres), culture duration 4 days
[7] = cell fibers (core–shell hydrogel microfibres), culture duration 7 days
[8] = cell fibers (core–shell hydrogel microfibres), culture duration 14 days
[9] = cell fibers (core–shell hydrogel microfibres), culture duration 30 days

| Molecule | IC50 (primary rat hepatocytes [1]; [5]) | IC50 (primary rat hepatocytes [2]; [5]) | number of the cells in cell fibers during exposure (primary rat hepatocytes [3]; 10 mg mL^−1, 24 h from day 2 to day 3 of culture, media containing 3T3CM) | IC50 value, inhibition of primary rat hepatocyte proliferation (primary rat hepatocytes [3]; cell fibers with 3T3CM, 24 h exposure after 2 days of culture) | IC50 (primary rat hepatocytes [3]; cell fibers with 3T3CM, 24 h exposure after 2 days of culture, converted from mg mL^−1) | IC50 (primary rat hepatocytes [1]; [6]) | IC50 (primary rat hepatocytes [1]; [7]) | IC50 (primary rat hepatocytes [1]; [8]) | IC50 (primary rat hepatocytes [1]; [9]) | IC50 (primary rat hepatocytes [4]; [6]) | IC50 (primary rat hepatocytes [4]; [7]) | IC50 (primary rat hepatocytes [4]; [8]) | IC50 (primary rat hepatocytes [4]; [9]) | IC50 (primary rat hepatocytes [4]; [5]) | IC50 (primary rat hepatocytes [2]; [6]) | IC50 (primary rat hepatocytes [2]; [7]) | IC50 (primary rat hepatocytes [2]; [8]) | IC50 (primary rat hepatocytes [2]; [9]) |
| --- | --- | --- | --- | --- | --- | --- | --- | --- | --- | --- | --- | --- | --- | --- | --- | --- | --- | --- |
| O=C(O)Cc1ccccc1Nc1c(Cl)cccc1Cl [Diclofenac] | 0.472 ± 0.098 mM | 0.385 ± 0.041 mM | – | – | – | – | – | – | – | – | – | – | – | – | – | – | – | – |
| retrorsine | – | – | did not change | 3100 ± 100 µg/mL | ~8.82 mM | – | – | – | – | – | – | – | – | – | – | – | – | – |
| CC(=O)Nc1ccc(O)cc1 [Acetaminophen] | 19.3 mM | 24 mM | – | – | – | 18.3 mM | 18.6 mM | 18.9 mM | 18.9 mM | 16.7 mM | 16.4 mM | 16.3 mM | 15.9 mM | 8.51 ± 0.089 mM | 17 mM | 15.9 mM | 15.9 mM | 17.3 mM |
